Experimental data taken from patent publication US6452028B1, “Vitamin D3 analogs” (Hoffmann-La Roche Inc., priority 1996, dated 2002).

Legend:
[1] = system: MCF-7 breast carcinoma cells; assay: Antiproliferative activity in MCF-7 breast carcinoma cells (MTT); format: cell-based; settings: inhibition of cell growth, day 3 to 7 post drug addition, Reed and Muench formula
HL-60 cells = assay: HL-60 cell differentiation (NBT reduction); format: cell-based; settings: concentration leading to 50% of maximal differentiation achieved with 100-1000 nM calcitriol, 3 days, read-out: ED50 (the source's name)
Description: HL-60 Cell Differentiation
The induction of differentiation of HL-60 cells was assayed by measuring their oxidative burst potential via the reduction of nitrobluetetrazolium (NBT).
HL-60 cells (30,000 cells/90 μl of RPMI/supplemented medium) were seeded into flat-bottomed microtiter wells. Immediately after seeding, 10 μl of test compounds diluted in supplemented RPMI medium were added to the wells at the same time to yield final concentrations between 10^−11 and 10^−6 M (starting from stock solutions of 10^−2 M in ethanol stored at −20° C. and protected from light).

HaCaT cell line = assay: Inhibition of keratinocyte proliferation (3H-thymidine uptake); format: cell-based, human; settings: 3H-thymidine incorporation after 6 days of culture in presence of the test compound
[2] = system: T47-D breast carcinoma cells; assay: Antiproliferative activity in T47-D breast carcinoma cells (MTT); format: cell-based; settings: inhibition of cell growth, day 3 to 7 post drug addition, Reed and Muench formula

| Compound | IC50 [1] | EC50 (HL-60 cells) | also measured |
| --- | --- | --- | --- |
| C=C1/C(=C\C=C2/CCC[C@]3(C)C([C@@H](C)C/C=C/C(O)(CC)CC)=CC[C@@H]23)C[C@@H](O)C[C@@H]1F [1α-Fluoro-25-hydroxy-16-23E-diene-26,27-bishomo-20-epi-cholecalciferol] | 30 nM |  |  |
| C=C1/C(=C\C=C2/CCC[C@]3(C)C([C@@H](C)C/C=C/C(O)(C(F)(F)F)C(F)(F)F)=CC[C@@H]23)C[C@@H](O)C[C@@H]1F [1α-Fluoro-25-hydroxy-16,23E-diene-26,27-hexafluoro-20-epi-cholecalciferol] | 9 nM |  |  |
| C=C1C(=CC=C2CCCC3(C)C(C(C)CC#CC(C)(C)O)=CCC23)CC(O)CC1O (stereo not drawn) [1,25-Dihydroxy-16-ene-23-yne-20-epi-cholecalciferol] |  | 15 nM | IC50 (HaCaT cell line): 93 nM |
| C=C1C(=CC=C2CCCC3(C)C(C(C)C/C=C\C(O)(C(F)(F)F)C(F)(F)F)=CCC23)CC(O)CC1O (stereo not drawn) [1,25-Dihydroxy-16,23Z-diene-26,27-hexafluoro-20-epi-cholecalciferol] |  | 2.3 nM |  |
| C=C1C(=CC=C2CCCC3(C)C(C(C)CC#CC(O)(C(F)(F)F)C(F)(F)F)=CCC23)CC(O)CC1F (stereo not drawn) [1α-Fluoro-25-hydroxy-16-ene-23-yne-26,27-hexafluoro-20-epicholecalciferol] | 11 nM |  |  |
| C=C1C(=CC=C2CCCC3(C)C(C(C)C/C=C\C(O)(C(F)(F)F)C(F)(F)F)=CCC23)CC(O)CC1F (stereo not drawn) [1α-Fluoro-25-hydroxy-16,23Z-diene-26,27-hexafluoro-20-epi-cholecalciferol] |  | 20 nM |  |
| 1,25-Dihydroxy-16,23Z-diene-26,27-hexafluoro-20-epi-19-nor-cholecalciferol |  | 4.5 nM |  |
| C=C1C(=CC=C2CCCC3(C)C(C(C)CCCC(C)(C)O)=CCC23)CC(O)CC1O (stereo not drawn) [1,25-Dihydroxy-16-ene-20-epi-cholecalciferol] |  | 2.5 nM | IC50 (HaCaT cell line): 4 nM |
| C=C1/C(=C\C=C2/CCC[C@]3(C)C([C@@H](C)CC#CC(O)(CC)CC)=CC[C@@H]23)C[C@@H](O)C[C@@H]1O [1,25-Dihydroxy-16-ene-23-yne-26,27-bishomo-20-epi-chole-calciferol] | 11 nM |  |  |
| CCC(O)(C#CCC(C)C1=CCC2C(=CC=C3CC(O)CC(O)C3)CCCC12C)CC (stereo not drawn) [1,25-Dihydroxy-16-ene-23-yne-26,27-bishomo-19-nor-20-epi-cholecalciferol] | 12 nM |  |  |
| C=C1/C(=C\C=C2/CCC[C@]3(C)C([C@@H](C)CC#CC(O)(C(F)(F)F)C(F)(F)F)=CC[C@@H]23)C[C@@H](O)C[C@@H]1O [1,25-Dihydroxy-16-ene-23-yne-26,27-hexafluoro-20-epi-cholecalciferol] | 0.95 nM | 2 nM | IC50 [2]: 6.7 nM; IC50 (HaCaT cell line): 50 nM |
| C=C1/C(=C\C=C2/CCC[C@]3(C)[C@@H]([C@H](C)CCCC(C)(C)O)CC[C@@H]23)C[C@@H](O)C[C@@H]1O [1,25-Dihydroxy-cholecalciferol, reference compound] |  |  | IC50 (HaCaT cell line; Homo sapiens, HaCaT): 55 nM |
